Results on 3 compounds are retold here after article PMC6304418, “A Novel Compound Targeting Protease Receptor 1 Activators for the Treatment of Glioblastoma” (Frontiers in Neurology, 2018).

In data set [1] the test system is U87 glioma cells. As to the kind of experiment: U87 glioma cell proliferation (XTT). The data set is classed as cell-based, human. The settings on record: 72 h. As for the experimental part: CNS-1, C6, and U87 rat and human glioma cells were grown in Dulbecco's modified Eagle's medium (DMEM; Bet Haemek, Biological Industries, Israel) supplemented with 10% fetal bovine serum (Bet Haemek, Biological Industries, Israel) and 1% penicillin and streptomycin in a 5% CO2-humidified atmosphere.
Cell proliferation was evaluated using a 2.3-Bis-(2-methoxy-4-nitro-5-sulfophenyl)-2H-tetrazolium-5-carboxyanilide salt (XTT)-based cell proliferation assay kit (Bet Haemek, Biological Industries, Israel). U87 cells were seeded in 96-well plates (5 × 10^3 cells/well) and incubated for 24 h. The medium was then removed, the tested molecules (10^−13-10^−4 M final concentration) were added in FCS-free medium and introduced to the cells for 72 h. After choosing SIXAC as the leading molecule, it was tested in a similar way in CNS-1 cells (SIXAC 1 μM final concentration). XTT solution (50 μl) was added to each well and incubated for 3 h at 37°C. The optical density (OD) of each well was recorded at 450 and 630 nm in a microplate reader (Infinite M200, Tecan, Durham, NC, USA). Cell viability was expressed as the percentage (ODtest–ODblank)/(ODcontrol–ODblank), where ODtest is the optical density of cells exposed to SIXAC treatment, ODcontrol is the optical density of the control sample, and ODblank is the optical density of wells without glioma cells.
For orientation: Formazan colour is commonly taken as a measure of viable cells.

Data set [2] concerns PAR1. To be noted: use limited; ref [34] Gao et al., 2015; cited from earlier work. The text has this: Numerous findings support the involvement of the thrombin-PAR1 pathway in glioma pathology ([8], [13], [18]). We have previously found a positive correlation between edema size and PAR1 expression in an animal model of GBM ([19]). […] In addition to the direct thrombin-PAR1 effects on glioma cells, PARs play a crucial role in the control of angiogenesis and vascular permeability by regulating the release of endostatin and vascular endothelial growth fac ...

Data set [3] concerns thrombin mediated PAR1 activation (pERK/ERK) in CNS-1 cells. As to the kind of experiment: ERK activation (pERK/ERK, Western blot) in CNS-1 cells. The data set is classed as cell-based, rat. To be noted: thrombin 1 U/ml, 10 min, FCS-free; n = 3; control 1 ± 0.07; p < 0.03 vs. control. How it is done:
Cells were seeded (1 × 10^6 cells/75 cm^2 flask) and incubated for 24 h. Then the medium was replaced by FCS-free medium for another 24 h. The cells were treated for 10 min with thrombin (1 U/ml), SIXAC (100 nM), a combination of thrombin and SIXAC or a FCS-free medium which was used as a control (n = 3 for each treatment). The cells were washed and lysed in RIPA buffer (containing in mM: 50 TRIS HCl pH 8, 150 NaCl, 1% NP-40, 0.5% sodium deoxycholate, and 0.1% SDS), a protease inhibitor cocktail (Merck Millipore 539134, 1:100), 0.1 mM sodium orthovanadate and 2 mM PMSF. The cells were scraped, collected and centrifuged (16,000g × 20 min) at 4°C. The supernatants were collected, and protein concentration was determined by means of a bicinchoninic acid (BCA) assay. Each sample (20 μg) was separated by SDS-polyacrylamide gel electrophoresis. The proteins were transferred onto nitrocellulose membranes. Membranes were incubated with mouse anti-phosphorylated Extracellular signal-Regulated Kinase (pERK) antibody (1:10,000, M8159, Sigma), for 1.5 h at room temperature (RT) and washed with Tris-buffered saline and 0.1% Tween 20 (TBST). Membranes were then incubated at RT with horseradish peroxidase-conjugated goat anti-mouse antibody (1:10,000, Jackson Immunoresearch Laboratories). […] Protein bands were detected by a peroxidase-based enhanced chemiluminescence (ECL) method. […]
In general terms: In western blotting, separated proteins are transferred to a membrane and probed.

Where a SMILES comes first, the peptide text is derived from it. The star is where a group is joined. Tos = Cc1ccc(S(=O)(=O)*)cc1; CH2Cl = ClC*

In the case of `Cc1ccc(S(=O)(=O)N[C@@H](CC(=O)O)C(=O)N2CCC[C@H]2C(=O)N[C@@H](CCCNC(=N)N)C(=O)CCl)cc1` [3AACK] (Tos-Asp-Pro-Arg-CH2Cl), the “U87 proliferation rate ("inhibit proliferation at a rate of")” value in data set [1] (10^−5M, FCS-free medium, mean ± SEM, 3AACK vs. 6AACK p < 0.035) worked out at 0.58 ± 0.046. Further, in data set [1] (10^−8M, p = 0.7), the “U87 proliferation inhibition, compared with 6AACK” value is “inhibits more efficiently the proliferation rate when compared to 6AACK at a concentration of 10^−8M, this was found to be non-significant”.

For the compound `CCOC(=O)N[C@@H]1CC[C@@H]2[C@@H](C1)C[C@H]1C(=O)O[C@H](C)[C@H]1[C@H]2/C=C/c1ccc(-c2cccc(F)c2)cn1` [Vorapaxar], the bleeding side-effects result in data set [2] was “limited due to bleeding side-effects”.

thrombin: in data set [3], the “pERK/ERK ratio, thrombin alone” value was found to be 2.09 ± 0.28.
